We go through 29 compounds from ChEMBL document CHEMBL1201862, “PubChem BioAssay data set” (2004).

Activity calls are given as the source filed them.

The target of experiment [1] is T1, Corticotropin-releasing factor receptor 2/Corticotropin-releasing factor-binding protein (Homo sapiens, UniProt P24387+Q13324).
T1 sequence (Q13324 whole entry): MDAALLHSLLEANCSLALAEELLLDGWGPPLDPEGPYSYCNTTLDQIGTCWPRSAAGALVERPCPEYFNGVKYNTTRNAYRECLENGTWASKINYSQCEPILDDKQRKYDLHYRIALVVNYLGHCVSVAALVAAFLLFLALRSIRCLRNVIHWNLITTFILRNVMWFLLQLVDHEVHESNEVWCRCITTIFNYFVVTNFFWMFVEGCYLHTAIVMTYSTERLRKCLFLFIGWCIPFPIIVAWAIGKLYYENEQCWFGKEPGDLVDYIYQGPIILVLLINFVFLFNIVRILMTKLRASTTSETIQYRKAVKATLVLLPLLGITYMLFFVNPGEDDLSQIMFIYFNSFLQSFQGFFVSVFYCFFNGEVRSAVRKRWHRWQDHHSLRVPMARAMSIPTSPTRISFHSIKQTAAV
T1 sequence (P24387 whole entry): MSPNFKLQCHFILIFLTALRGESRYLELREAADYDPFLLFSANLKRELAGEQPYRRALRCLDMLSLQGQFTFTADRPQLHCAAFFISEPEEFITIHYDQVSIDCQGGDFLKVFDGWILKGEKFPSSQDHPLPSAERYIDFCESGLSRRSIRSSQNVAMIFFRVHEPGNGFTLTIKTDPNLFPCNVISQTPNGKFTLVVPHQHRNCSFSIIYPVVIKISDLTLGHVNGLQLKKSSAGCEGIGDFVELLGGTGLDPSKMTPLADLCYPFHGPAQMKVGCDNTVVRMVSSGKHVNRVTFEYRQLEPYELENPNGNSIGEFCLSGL
Nature of the experiment: activators of CRF receptor 2 with binding protein – uHTS hits, confirmation (AID 602473). The format is functional. To be noted: read-out: EC50_Mean.

Experiment [2] concerns the target FAD-linked sulfhydryl oxidase ALR (Homo sapiens, UniProt P55789). In words: inhibitors of human ALR sulfhydryl oxidase, dose response, biochemical, H2O2 detection, luminescence, cherry-pick (AID 493248).
The target of experiment [3] is T2, Rac GTPase-activating protein 1 (Homo sapiens, UniProt Q9H0H5).
T2 sequence (Q9H0H5 whole entry): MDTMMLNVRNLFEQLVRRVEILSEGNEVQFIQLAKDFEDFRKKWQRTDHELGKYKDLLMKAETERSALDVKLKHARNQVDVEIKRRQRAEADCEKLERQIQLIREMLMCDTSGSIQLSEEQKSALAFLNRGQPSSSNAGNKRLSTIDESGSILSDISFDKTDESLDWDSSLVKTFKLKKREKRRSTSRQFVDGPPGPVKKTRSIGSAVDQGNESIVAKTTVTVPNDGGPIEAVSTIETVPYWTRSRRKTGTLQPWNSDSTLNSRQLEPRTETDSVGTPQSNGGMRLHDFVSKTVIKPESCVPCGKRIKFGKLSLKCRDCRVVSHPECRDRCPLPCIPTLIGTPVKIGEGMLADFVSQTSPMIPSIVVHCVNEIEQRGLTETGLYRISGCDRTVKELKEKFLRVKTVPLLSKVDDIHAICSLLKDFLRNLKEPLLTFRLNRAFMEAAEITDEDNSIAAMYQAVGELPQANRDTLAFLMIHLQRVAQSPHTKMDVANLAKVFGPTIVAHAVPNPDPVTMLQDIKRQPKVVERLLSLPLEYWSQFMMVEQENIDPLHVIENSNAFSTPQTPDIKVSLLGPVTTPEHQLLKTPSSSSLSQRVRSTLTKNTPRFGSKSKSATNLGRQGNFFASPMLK
In words: MgcRacGAP GTPase-activating activity inhibitors, confirmation, biochemical, ADP Hunter fluorescence, primary and confirmatory (AID 624330). The format is functional.

Experiment [4] can be described thus: growth suppression of PTEN-null colon cells, dose response, cell-based, HCT116 PTEN knockout (AID 1047).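 Further: HCT116 colon tumor cells with PTEN knocked out; cells exposed to compound for 60 hours before readout; potency for loss of cell viability measured by luminescence.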 The format is functional.
The nature of experiment [5]: growth suppression of beta-catenin-knockout colon cells, dose response, cell-based, HCT116, human colon tumor (AID 1045).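 Further: HCT116 colon tumor cells with beta catenin knocked out; cells exposed to compound for 60 hours.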 The format is functional.
The nature of experiment [6]: cells. The format is functional.
For experiment [7], the target named is Fatty acid synthase (Homo sapiens, UniProt P49327). Nature of the experiment: FAS thioesterase domain inhibitors, dose response, biochemical, kinetic fluorescence intensity (AID 624326).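 Further: rate of fluorescence rise from hydrolysis of a fluorogenic O-methyl fluorescein ester substrate.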 The format is functional.
A short description of experiment [8]: Luminescence Cell-Based Dose Retest to Confirm Inhibitors of Cancer Stem Cells. [Related pubchem assays (depositor defined):AID2717, AID2721]. The experiment is classed as functional. The settings on record: Homo sapiens.
For experiment [9], the system named is Vero. Nature of the experiment: cells. The format is functional. To be noted: Chlorocebus sabaeus.
Experiment [10] is described as follows: MC4R antagonists, dose response, counter-screen for LGR2 antagonist project, cell-based, plate reader, cherry pick (AID 743444).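 Further: transfected HEK 293 cells stimulated with alpha-MSH peptide; potency of inhibitors of the alpha-MSH evoked signal.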 The format is functional. On the technique in general: The purpose of a counterscreen is to sort out artefacts and off-target activity.
The nature of experiment [11]: A549 cell cytotoxicity, dose response, cytotoxicity control, plate reader, cherry-pick, antagonist series (AID 743412). The experiment is classed as functional, cell-based.
Experiment [12] is described as follows: HepG2 cell cytotoxicity, dose response, cytotoxicity control, plate reader, cherry-pick, antagonist series (AID 743416). The experiment is classed as functional, cell-based.

Sequence of FAD-linked sulfhydryl oxidase ALR (P55789 whole entry): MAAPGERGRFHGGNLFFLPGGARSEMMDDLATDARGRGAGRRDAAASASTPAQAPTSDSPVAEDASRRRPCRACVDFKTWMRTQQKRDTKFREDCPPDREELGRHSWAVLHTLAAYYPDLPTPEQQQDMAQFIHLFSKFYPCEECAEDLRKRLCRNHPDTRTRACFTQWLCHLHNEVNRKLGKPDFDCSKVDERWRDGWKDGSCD
Sequence of Fatty acid synthase (P49327 whole entry, the tested form may be a part): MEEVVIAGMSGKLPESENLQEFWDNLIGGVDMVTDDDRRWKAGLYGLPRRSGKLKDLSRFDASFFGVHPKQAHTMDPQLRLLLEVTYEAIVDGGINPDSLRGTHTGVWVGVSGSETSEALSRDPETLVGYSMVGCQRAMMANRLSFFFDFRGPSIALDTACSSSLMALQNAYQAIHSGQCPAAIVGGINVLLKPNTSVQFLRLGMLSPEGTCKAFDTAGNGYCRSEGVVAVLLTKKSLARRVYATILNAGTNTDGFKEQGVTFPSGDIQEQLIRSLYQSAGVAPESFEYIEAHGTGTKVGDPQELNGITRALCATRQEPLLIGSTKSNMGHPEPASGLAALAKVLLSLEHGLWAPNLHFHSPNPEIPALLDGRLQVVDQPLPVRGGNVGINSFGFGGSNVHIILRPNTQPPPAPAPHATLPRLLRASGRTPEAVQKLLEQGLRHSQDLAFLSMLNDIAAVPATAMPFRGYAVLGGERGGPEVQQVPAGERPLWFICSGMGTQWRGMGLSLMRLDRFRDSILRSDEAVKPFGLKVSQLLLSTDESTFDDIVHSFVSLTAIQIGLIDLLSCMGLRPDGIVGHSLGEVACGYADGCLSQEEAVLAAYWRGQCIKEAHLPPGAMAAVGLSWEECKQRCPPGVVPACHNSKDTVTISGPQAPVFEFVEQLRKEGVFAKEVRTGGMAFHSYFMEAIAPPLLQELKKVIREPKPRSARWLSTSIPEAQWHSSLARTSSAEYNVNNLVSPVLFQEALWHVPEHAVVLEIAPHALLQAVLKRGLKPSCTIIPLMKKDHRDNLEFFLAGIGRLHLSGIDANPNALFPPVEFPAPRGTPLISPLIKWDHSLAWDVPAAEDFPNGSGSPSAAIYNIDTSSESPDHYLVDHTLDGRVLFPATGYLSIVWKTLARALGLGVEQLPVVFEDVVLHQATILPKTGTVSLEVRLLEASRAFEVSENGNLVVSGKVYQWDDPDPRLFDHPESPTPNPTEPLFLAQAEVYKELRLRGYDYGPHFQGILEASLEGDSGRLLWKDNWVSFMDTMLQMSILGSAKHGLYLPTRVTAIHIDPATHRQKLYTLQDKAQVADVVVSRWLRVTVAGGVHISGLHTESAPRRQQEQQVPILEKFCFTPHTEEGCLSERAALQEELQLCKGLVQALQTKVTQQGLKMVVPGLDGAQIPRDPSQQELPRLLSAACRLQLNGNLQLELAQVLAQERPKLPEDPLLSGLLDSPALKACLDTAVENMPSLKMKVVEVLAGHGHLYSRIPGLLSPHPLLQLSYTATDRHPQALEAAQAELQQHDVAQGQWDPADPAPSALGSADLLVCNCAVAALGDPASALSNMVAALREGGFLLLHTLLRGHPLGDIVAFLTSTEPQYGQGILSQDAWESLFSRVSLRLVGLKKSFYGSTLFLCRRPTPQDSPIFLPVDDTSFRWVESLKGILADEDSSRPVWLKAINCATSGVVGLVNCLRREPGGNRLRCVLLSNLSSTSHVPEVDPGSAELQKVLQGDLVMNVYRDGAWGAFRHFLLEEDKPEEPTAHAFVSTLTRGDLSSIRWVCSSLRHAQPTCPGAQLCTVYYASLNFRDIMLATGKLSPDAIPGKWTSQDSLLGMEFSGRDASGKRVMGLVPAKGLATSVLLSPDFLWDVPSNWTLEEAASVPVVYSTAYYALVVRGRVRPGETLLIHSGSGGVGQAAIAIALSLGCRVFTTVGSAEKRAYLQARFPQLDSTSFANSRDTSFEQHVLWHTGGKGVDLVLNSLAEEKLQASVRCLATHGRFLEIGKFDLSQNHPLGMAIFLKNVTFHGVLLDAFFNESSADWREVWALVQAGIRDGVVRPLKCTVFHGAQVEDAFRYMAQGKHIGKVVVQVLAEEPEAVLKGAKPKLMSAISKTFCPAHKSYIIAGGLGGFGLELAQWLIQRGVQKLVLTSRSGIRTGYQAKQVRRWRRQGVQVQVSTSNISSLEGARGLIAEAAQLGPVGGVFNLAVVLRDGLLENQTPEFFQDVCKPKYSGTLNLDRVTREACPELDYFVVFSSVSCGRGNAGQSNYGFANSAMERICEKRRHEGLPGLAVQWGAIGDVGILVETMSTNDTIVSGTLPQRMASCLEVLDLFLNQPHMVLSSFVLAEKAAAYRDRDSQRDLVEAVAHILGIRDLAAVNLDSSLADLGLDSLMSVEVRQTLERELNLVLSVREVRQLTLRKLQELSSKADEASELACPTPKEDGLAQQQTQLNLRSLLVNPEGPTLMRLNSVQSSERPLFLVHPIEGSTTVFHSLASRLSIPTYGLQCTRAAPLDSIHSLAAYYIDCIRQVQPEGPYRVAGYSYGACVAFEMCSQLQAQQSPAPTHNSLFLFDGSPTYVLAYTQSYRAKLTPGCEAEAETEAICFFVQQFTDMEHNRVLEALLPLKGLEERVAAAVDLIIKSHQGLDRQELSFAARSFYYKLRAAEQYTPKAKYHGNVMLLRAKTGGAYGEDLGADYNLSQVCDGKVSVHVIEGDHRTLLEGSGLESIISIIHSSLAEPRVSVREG

Take `Cc1cc(-c2cccs2)c2c(N)c(C(=O)c3ccc4c(c3)OCO4)sc2n1`: the EC50 in experiment [1] was 7.29 µM (active). Regarding `O=[N+]([O-])c1cccc(CN2CCN(c3cccc4[nH]ccc34)CC2)c1`, the AC50 (usually the midpoint of the concentration-response curve, whichever way the signal moves) in experiment [2] is 2.06 µM (active). In experiment [3], the IC50 – broadly, the concentration that gives 50% inhibition – was 45.4 µM (active).

For `CC(C)CCn1c(SCCc2ccccc2)nc2c1c(=O)[nH]c(=O)n2C`, the EC50 was 30.9 µM (active) in experiment [4] and 35.6 µM (active) in experiment [5]. Regarding `Cc1noc(/C=C/c2ccco2)c1S(=O)(=O)N1CCC(C(=O)N2CCc3ccccc3C2)CC1`, the EC50 is 24.8 µM (active) in experiment [4] and 26.9 µM (active) in [5]. As for `Cc1ccc(NS(=O)(=O)c2ccc(C(=O)N3CCCC(C(F)(F)F)C3)cc2)cc1` (stereo not given), the EC50 in experiment [1] was 5.17 µM (active). Take `Cc1cccc(Oc2ccc(NC(=O)c3ccccc3C(=O)O)cc2)c1`: the AC50 in experiment [2] is 5.07 µM (active).

As for `O=C(CSc1nnc(SCc2cccc3ccccc23)s1)N=Nc1c(O)[nH]c2ccccc12`, the figures for the EC50 in experiment [4] and in experiment [5] were 13.6 µM (active) and 10.8 µM (active), respectively. Regarding `Cc1cccc(NC(=O)COc2ccc(Br)cc2)n1`, the IC50 in experiment [6] is 23.4 µM (active). With `Cc1sc2nc(CN3CCCC3)nc(Cl)c2c1C`, the EC50 in experiment [4] was 16.2 µM (active); in [5], 11.2 µM (active). Consider `COC(=O)C1CSC(C(=O)OC)N1C(=O)CN1CCN(c2ccccc2)CC1` (stereo not given), for which the AC50 in experiment [2] was 2.84 µM (active). Still for that read-out and setting: for `CCCCn1c(NC(C)CC)nc2c1c(=O)[nH]c(=O)n2C` (stereo not given) the value was 4.01 µM (active); for `COc1cc(C(=O)NCC(c2cccnc2)N2CCN(c3ccccc3)CC2)cc(OC)c1OC` (stereo not given), 3.41 µM (active). On to `COc1ccc(CNC(=O)/C=C/c2cc([N+](=O)[O-])ccc2OC(F)F)cc1OC`, for which the IC50 in experiment [7] is 3.28 µM (active). As to `COc1cc(N(C(=O)Cc2cccs2)C(C(=O)NC2CCCCC2)c2ccc(C)cc2)ccc1-n1cnnn1` (stereo not given), the EC50 in experiment [4] was 8.44 µM (active); in experiment [5], 8.86 µM (active). Take `Cc1ccc(-c2nc(Nc3cccc(C)c3)sc2CC(=O)O)cc1`: the AC50 in experiment [2] is 9.95 µM (active). Still for that read-out and setting: for `Cn1c(CNc2ccc(Br)cc2)nc2ccccc21` the value was 14.6 µM (active).

In the case of `Cc1cc(C)nc(NC(N)=Nc2ccc(CC(=O)OC(C)C)cc2)n1`, the EC50 in experiment [1] was 2.56 µM (active).

`Cc1nnc2sc(SCc3cccc(Cl)c3)nn2c1=O`: the concentration at half-maximal activity (AC50) in [8] is 34.2 µM (active); in experiment [2], 0.175 µM (active). For `CC1(C)CC(=O)CC(C2(O)C(=O)N(Cc3ccccc3)c3ccccc32)O1` (stereo not given), the values for the EC50 in [4] and in experiment [5] were 17.7 µM (active) and 17.4 µM (active), respectively. For the compound `Cc1cccc(C)c1NC(=O)NCCCN1CCN(c2ccccc2)CC1`, the AC50 in experiment [2] was 89.4 µM (active). For the compound `CCc1nonc1NC(=O)COc1ccc(Cl)c(C)c1`, the half-inhibitory concentration (IC50) in [6] is 17 µM (active). On to `O=C(CCc1ccccc1)N1CCN(c2ccc(F)cc2)CC1`, for which, in experiment [2], the AC50 is 13.8 µM (active).

Regarding `COC(=O)c1scc(C)c1NC(=O)c1ccccc1F`, in experiment [1], the EC50 was > 53 µM (inactive). For the compound `CC(=O)Nc1ccc(S(=O)(=O)N2CN(c3ccc(C)cc3)c3nc4ccccc4nc32)cc1`, the CC50 (usually the concentration at which the toxic effect on the cells reaches its halfway point) in [9] was > 25 µM (active). As for `CN(Cc1cnn(-c2ccccc2)c1)C(=O)c1ccc(S(=O)(=O)NCc2ccco2)cc1`, in [9], the CC50 is 14.4 µM (active).

Regarding `CC1(C)CS/C(=N\Cc2ccccc2)N1C(=O)c1cccc([N+](=O)[O-])c1`, in experiment [1], the EC50 is 7.16 µM (active). Turning to `OC[C@H]1[C@@H](c2ccc(-c3ccc(F)cc3)cc2)[C@@H]2CN(Cc3ccccn3)CCCCN12`, the figures for the AC50 in experiment [10], in experiment [11] and in experiment [12] were 37.5 µM (active), 22 µM (active) and 19.1 µM (active), respectively. Turning to `C[C@H](CO)N1C[C@H](C)[C@H](CN(C)C(=O)Cc2ccccc2)OCCCC[C@H](C)Oc2ccc(NC(=O)Nc3ccc(C(F)(F)F)cc3)cc2C1=O`, the AC50 in experiment [10] was 4.79 µM (active); in [12], 35 µM (active). For `CCOC(=O)COc1ccc2c(=O)cc(-c3ccccc3)oc2c1` [EFLOXATE], the IC50 in [6] was < 0.1 µM (active).
